Measurements as given in US10174053B2, “2 substituted cephem compounds” (Glaxo Group Limited, priority 2012, dated 2019).
In brackets after ≈: the same amount, converted by molar mass. Where two headings read alike, the source gives them in different places.

How the values were obtained:
Experiment in all cases: In vitro antimicrobial activity, MIC by broth microdilution (CLSI)
Type in all cases: cell-based
[1] = tested on: A. baumannii JMI2346; settings: for MIC: Acinetobacter baumannii
How it was run: (§1)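 MIC (μg/mL) by CLSI broth microdilution, inoculum 5×10^5 cfu/mL, in cation-adjusted Iso-Sensitest broth containing human apo-transferrin.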

[2] = tested on: A. baumannii JMI7; settings: for MIC: Acinetobacter baumannii
How it was run: as §1

[3] = tested on: E. Coli JMI1890; settings: for MIC: Escherichia coli, read-out: Minimum Inhibitory Concentration (MIC) E. Coli JMI:1890
How it was run: as §1

[4] = tested on: K. pneumoniae SR01358; settings: for MIC: Klebsiella pneumoniae
How it was run: as §1

[5] = OXA-51, TEM, ESBL and OXA-type carbapenemase producing strain, 5×10^5 cfu/mL, cation-adjusted Iso-Sensitest broth containing human Apo-transferrin
[6] = PER-1, OXA-23, 51, ESBL and OXA-type carbapenemase producing strain, 5×10^5 cfu/mL, cation-adjusted Iso-Sensitest broth containing human Apo-transferrin
[7] = PER-1, TEM-1, ESBL producing strain, 5×10^5 cfu/mL, cation-adjusted Iso-Sensitest broth containing human Apo-transferrin
[8] = KPC-2, ESBL and KPC-type carbapenemase producing strain, 5×10^5 cfu/mL, cation-adjusted Iso-Sensitest broth containing human Apo-transferrin
[9] = JMI2346, OXA-51, TEM, ESBL and OXA-type carbapenemase producing strain, 5×10^5 cfu/mL, cation-adjusted Iso-Sensitest broth containing human Apo-transferrin, read-out: Minimum Inhibitory Concentration (MIC) A. baumannii JMI:2346
[10] = JMI7, PER-1, OXA-23, 51, ESBL and OXA-type carbapenemase producing strain, 5×10^5 cfu/mL, cation-adjusted Iso-Sensitest broth containing human Apo-transferrin, read-out: Minimum Inhibitory Concentration (MIC) A. baumannii JMI:7
[11] = SR01358, KPC-2, ESBL and KPC-type carbapenemase producing strain, 5×10^5 cfu/mL, cation-adjusted Iso-Sensitest broth containing human Apo-transferrin, read-out: Minimum Inhibitory Concentration (MIC) K. pneumoniae SR01358

| MIC [1, 9] | MIC [2, 10] | MIC [3, 7] | MIC [4, 11] | SMILES | further results |
| --- | --- | --- | --- | --- | --- |
| – | – | – | – | CO/N=C(\C(=O)NCC12CC[N+](CC3=C(COO)N4C(=O)[C@@H](NC(=O)/C(=N\OC(C)(C)C(=O)[O-])c5csc(N)n5)[C@H]4S[C@H]3C)(CC1)CC2)c1cc(O)c(O)c(Cl)c1 [Compound I-131] | Minimum Inhibitory Concentration (MIC) A. baumannii JMI:2346 [1, 5]: 2 µg/mL; Minimum Inhibitory Concentration (MIC) A. baumannii JMI:7 [2, 6]: 2 µg/mL; Minimum Inhibitory Concentration (MIC) E. Coli JMI:1890 [3, 7]: 0.125 µg/mL; Minimum Inhibitory Concentration (MIC) K. pneumoniae SR01358 [4, 8]: 0.063 µg/mL |
| – | – | – | – | CO/N=C(\C(=O)NCC12CC[N+](CC3=C(COO)N4C(=O)[C@@H](NC(=O)/C(=N\OC(C)(C)C(=O)[O-])c5csc(N)n5)[C@H]4S[C@H]3C)(CC1)CC2)c1cc(O)c(O)c(F)c1 [Compound I-132] | Minimum Inhibitory Concentration (MIC) A. baumannii JMI:2346 [1, 5]: 4 µg/mL; Minimum Inhibitory Concentration (MIC) A. baumannii JMI:7 [2, 6]: 1 µg/mL; Minimum Inhibitory Concentration (MIC) E. Coli JMI:1890 [3, 7]: 0.25 µg/mL; Minimum Inhibitory Concentration (MIC) K. pneumoniae SR01358 [4, 8]: ≤0.031 µg/mL |
| 2 µg/mL (≈ 2.44 µM) | 0.5 µg/mL (≈ 0.609 µM) | 0.25 µg/mL (≈ 0.304 µM) | ≤ 0.031 µg/mL | C[C@@H]1S[C@@H]2[C@H](NC(=O)/C(=N\OC(C)(C)C(=O)[O-])c3csc(N)n3)C(=O)N2C(C(=O)O)=C1C[N+]12CCC(CC1)N(C(=O)/C(=N\O)c1ccc(O)c(O)c1Cl)CC2 [Compound I-137] | – |
| – | – | – | – | C[C@@H]1S[C@@H]2[C@H](NC(=O)/C(=N\OC(C)(C)C(=O)[O-])c3csc(N)n3)C(=O)N2C(C(=O)O)=C1C[N+]12CCC(CC1)N(C(=O)C(=NO)c1cc(O)c(O)c(Cl)c1)CC2 [Compound I-138] | MIC ([1]; JMI2346, read-out: Minimum Inhibitory Concentration (MIC) A. baumannii JMI:2346): 4 µg/mL (≈ 4.87 µM); MIC ([2]; JMI7, read-out: Minimum Inhibitory Concentration (MIC) A. baumannii JMI:7): 0.5 µg/mL (≈ 0.609 µM); MIC [3]: 0.25 µg/mL (≈ 0.304 µM); MIC ([4]; SR01358, read-out: Minimum Inhibitory Concentration (MIC) K. pneumoniae SR01358): ≤ 0.031 µg/mL |
| 2 µg/mL (≈ 2.57 µM) | 0.5 µg/mL (≈ 0.642 µM) | 0.25 µg/mL (≈ 0.321 µM) | ≤ 0.031 µg/mL | C[C@@H]1S[C@@H]2[C@H](NC(=O)/C(=N\OC(C)(C)C(=O)[O-])c3csc(N)n3)C(=O)N2C(C(=O)O)=C1C[N+]12CCC(CNC(=O)c3cc(O)c(O)c(Cl)c3)(CC1)C2 [Compound I-142] | – |
| 0.5 µg/mL (≈ 0.582 µM) | 0.25 µg/mL (≈ 0.291 µM) | ≤ 0.031 µg/mL | 0.063 µg/mL (≈ 0.0733 µM) | C[C@@H]1S[C@@H]2[C@H](NC(=O)/C(=N\OC(C)(C)C(=O)O)c3csc(N)n3)C(=O)N2C(C(=O)[O-])=C1C[N+]12CCC(CC1)N(C(=O)c1cn(C)c3cc(O)c(O)c(Cl)c3c1=O)CC2 [Compound I-160, (4S,6R,7R)-7-((Z)-2-(2-aminothiazol-4-yl)-2-(((2-carboxypropan-2-yl)oxy)imino)acetamido)-3-((4-(5-chloro-6,7-dihydroxy-1-methyl-4-oxo-1,4-dihydroquinoline-3-carbonyl)-1,4-diazabicyclo[3.2.2]nonan-1-ium-1-yl)methyl)-4-methyl-8-oxo-5-thia-1-azabicyclo[4.2.0]oct-2-ene-2-carboxylate] | – |
| 2 µg/mL (≈ 2.6 µM) | 0.5 µg/mL (≈ 0.65 µM) | ≤ 0.031 µg/mL | ≤ 0.031 µg/mL | C[C@@H]1S[C@@H]2[C@H](NC(=O)/C(=N\OC(C)(C)C(=O)O)c3csc(N)n3)C(=O)N2C(C(=O)[O-])=C1C[N+]12CCC(Cn3cnc4cc(O)c(O)cc4c3=O)(CC1)C2 [Compound I-164, (4S,6R,7R)-7-((Z)-2-(2-aminothiazol-4-yl)-2-(((2-carboxypropan-2-yl)oxy)imino)acetamido)-3-((4-((6,7-dihydroxy-4-oxoquinazolin-3(4H)-yl)methyl)-1-azabicyclo[2.2.1]heptan-1-ium-1-yl)methyl)-4-methyl-8-oxo-5-thia-1-azabicyclo[4.2.0]oct-2-ene-2-carboxylate] | – |
| 1 µg/mL (≈ 1.24 µM) | 0.5 µg/mL (≈ 0.622 µM) | ≤ 0.031 µg/mL | ≤ 0.031 µg/mL | C[C@@H]1S[C@@H]2[C@H](NC(=O)/C(=N\OC(C)(C)C(=O)O)c3csc(N)n3)C(=O)N2C(C(=O)[O-])=C1C[N+]12CCC(Cn3cnc4cc(O)c(O)c(Cl)c4c3=O)(CC1)C2 [Compound I-165, (4S,6R,7R)-7-((Z)-2-(2-aminothiazol-4-yl)-2-(((2-carboxypropan-2-yl)oxy)imino)acetamido)-3-((4-((5-chloro-6,7-dihydroxy-4-oxoquinazolin-3(4H)-yl)methyl)-1-azabicyclo[2.2.1]heptan-1-ium-1-yl)methyl)-4-methyl-8-oxo-5-thia-1-azabicyclo[4.2.0]oct-2-ene-2-carboxylate] | – |
| 1 µg/mL | 0.25 µg/mL | 4 µg/mL | ≤ 0.031 µg/mL | C[C@@H]1S[C@@H]2[C@H](NC(=O)/C(=N\OC(C)(C)C(=O)[O-])c3csc(N)n3)C(=O)N2C(C(=O)[O-])=C1C[N+]12CCC(CC1)N(C(=O)c1c[nH]c3cc(O)c(O)cc3c1=O)CC2.[Na+] [Compound I-174, (4S,6R,7R)-7-((Z)-2-(2-aminothiazol-4-yl)-2-(((2-carboxypropan-2-yl)oxy)imino)acetamido)-3-((4-(6,7-dihydroxy-4-oxo-1,4-dihydroquinoline-3-carbonyl)-1,4-diazabicyclo[3.2.2]nonan-1-ium-1-yl)methyl)-4-methyl-8-oxo-5-thia-1-azabicyclo[4.2.0]oct-2-ene-2-carboxylate, Sodium salt] | – |

| SMILES | MIC [1, 9] | MIC [2, 10] | MIC [3, 7] | MIC [4, 11] | further results |
| --- | --- | --- | --- | --- | --- |
| C[C@@H]1S[C@@H]2[C@H](NC(=O)/C(=N\OC(C)(C)C(=O)[O-])c3csc(N)n3)C(=O)N2C(C(=O)O)=C1C[N+]12CCC(CNC(=O)/C(=N\O)c3cc(O)c(O)c(F)c3)(CC1)CC2 [Compound I-136] | 2 µg/mL (≈ 2.44 µM) | 1 µg/mL (≈ 1.22 µM) | 0.5 µg/mL (≈ 0.611 µM) | ≤ 0.031 µg/mL | – |
| C[C@@H]1S[C@@H]2[C@H](NC(=O)/C(=N\OC(C)(C)C(=O)O)c3csc(N)n3)C(=O)N2C(C(=O)[O-])=C1C[N+]12CCC(Cn3cnc4cc(O)c(O)cc4c3=O)(CC1)CC2 [Compound I-150, (4S,6R,7R)-7-((Z)-2-(2-aminothiazol-4-yl)-2-(((2-carboxypropan-2-yl)oxy)imino)acetamido)-3-((4-((6,7-dihydroxy-4-oxoquinazolin-3(4H)-yl)methyl)quinuclidin-1-ium-1-yl)methyl)-4-methyl-8-oxo-5-thia-1-azabicyclo[4.2.0]oct-2-ene-2-carboxylate] | 2 µg/mL (≈ 2.55 µM) | 0.5 µg/mL (≈ 0.639 µM) | 2 µg/mL (≈ 2.55 µM) | ≤ 0.031 µg/mL | – |
| C[C@@H]1S[C@@H]2[C@H](NC(=O)/C(=N\OC(C)(C)C(=O)O)c3csc(N)n3)C(=O)N2C(C(=O)[O-])=C1C[N+]12CCC(Cn3cnc4cc(O)c(O)c(Cl)c4c3=O)(CC1)CC2 [Compound I-161, (4S,6R,7R)-7-((Z)-2-(2-aminothiazol-4-yl)-2-(((2-carboxypropan-2-yl)oxy)imino)acetamido)-3-((4-((5-chloro-6,7-dihydroxy-4-oxoquinazolin-3(4H)-yl)methyl)quinuclidin-1-ium-1-yl)methyl)-4-methyl-8-oxo-5-thia-1-azabicyclo[4.2.0]oct-2-ene-2-carboxylate] | 4 µg/mL (≈ 4.89 µM) | 0.25 µg/mL (≈ 0.306 µM) | 0.125 µg/mL (≈ 0.153 µM) | ≤ 0.031 µg/mL | – |
| C[C@@H]1S[C@@H]2[C@H](NC(=O)/C(=N\OC(C)(C)C(=O)[O-])c3csc(N)n3)C(=O)N2C(C(=O)[O-])=C1C[N+]12CCC(CNC(=O)c3c[nH]c4cc(O)c(O)c(Cl)c4c3=O)(CC1)CC2.[Na+] [Compound I-169, (4S,6R,7R)-7-((Z)-2-(2-aminothiazol-4-yl)-2-(((2-carboxypropan-2-yl)oxy)imino)acetamido)-3-((4-((5-chloro-6,7-dihydroxy-4-oxo-1,4-dihydroquinoline-3-carboxamido)methyl)quinuclidin-1-ium-1-yl)methyl)-4-methyl-8-oxo-5-thia-1-azabicyclo[4.2.0]oct-2-ene-2-carboxylate, Sodium salt] | 0.5 µg/mL | 0.25 µg/mL | 0.063 µg/mL | ≤ 0.031 µg/mL | – |
